How the values were obtained:
[1] = target: Amine oxidase [flavin-containing] B (Homo sapiens, UniProt P27338); assay: Inhibition of human MAOB
[2] = target: T1, Acetylcholinesterase (Homo sapiens, UniProt P22303); assay: Inhibition of human AChE
[3] = target: T2, Cholinesterase (Homo sapiens, UniProt P06276); assay: Inhibition of human BChE
[4] = target: Amyloid-beta precursor protein (Homo sapiens) (UniProt P05067); assay: Inhibition of amyloid beta (1 to 42 residues) (unknown origin) self aggregation at 10 uM ThT-based fluorescence assay relative to control
Amyloid-beta precursor protein (Homo sapiens), sequence (P05067 whole entry, the tested form may be a part): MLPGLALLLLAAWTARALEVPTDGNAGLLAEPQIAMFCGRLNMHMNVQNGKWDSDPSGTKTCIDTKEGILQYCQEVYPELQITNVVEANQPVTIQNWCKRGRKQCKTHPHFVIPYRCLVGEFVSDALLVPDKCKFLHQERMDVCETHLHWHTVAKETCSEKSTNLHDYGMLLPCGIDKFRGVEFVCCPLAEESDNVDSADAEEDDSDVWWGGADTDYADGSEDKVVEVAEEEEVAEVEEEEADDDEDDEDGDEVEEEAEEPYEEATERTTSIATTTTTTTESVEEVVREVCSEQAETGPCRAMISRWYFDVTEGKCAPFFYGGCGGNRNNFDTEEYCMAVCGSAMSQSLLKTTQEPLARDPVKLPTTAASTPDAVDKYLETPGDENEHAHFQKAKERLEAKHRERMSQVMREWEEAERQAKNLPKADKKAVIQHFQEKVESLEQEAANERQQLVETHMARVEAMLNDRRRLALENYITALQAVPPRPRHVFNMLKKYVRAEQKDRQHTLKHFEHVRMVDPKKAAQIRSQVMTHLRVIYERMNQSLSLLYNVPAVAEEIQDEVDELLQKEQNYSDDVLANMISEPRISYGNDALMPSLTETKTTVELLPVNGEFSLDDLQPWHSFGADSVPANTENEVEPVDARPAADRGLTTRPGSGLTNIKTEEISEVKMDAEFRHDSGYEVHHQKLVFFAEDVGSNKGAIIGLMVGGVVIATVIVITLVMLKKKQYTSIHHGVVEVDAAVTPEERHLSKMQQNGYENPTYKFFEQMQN

[5] = target: Neuronal acetylcholine receptor subunit alpha-7 (Homo sapiens, UniProt P36544); assay: Inhibition of alpha7 nAChR (unknown origin)
[6] = target: Neuronal acetylcholine receptor; alpha4/beta2 (Homo sapiens, UniProt P17787+P43681); assay: Inhibition of alpha4beta2 nAChR (unknown origin); format: protein-complex assay
[7] = target: Amine oxidase [flavin-containing] A (Homo sapiens, UniProt P21397); assay: Inhibition of human MAOA
[8] = target: Prostaglandin G/H synthase 1 (Homo sapiens, UniProt P23219); assay: Inhibition of COX1 in human platelets after 30 mins by mass spectrometry analysis
Prostaglandin G/H synthase 1 (Homo sapiens, UniProt P23219), sequence (P23219 whole entry): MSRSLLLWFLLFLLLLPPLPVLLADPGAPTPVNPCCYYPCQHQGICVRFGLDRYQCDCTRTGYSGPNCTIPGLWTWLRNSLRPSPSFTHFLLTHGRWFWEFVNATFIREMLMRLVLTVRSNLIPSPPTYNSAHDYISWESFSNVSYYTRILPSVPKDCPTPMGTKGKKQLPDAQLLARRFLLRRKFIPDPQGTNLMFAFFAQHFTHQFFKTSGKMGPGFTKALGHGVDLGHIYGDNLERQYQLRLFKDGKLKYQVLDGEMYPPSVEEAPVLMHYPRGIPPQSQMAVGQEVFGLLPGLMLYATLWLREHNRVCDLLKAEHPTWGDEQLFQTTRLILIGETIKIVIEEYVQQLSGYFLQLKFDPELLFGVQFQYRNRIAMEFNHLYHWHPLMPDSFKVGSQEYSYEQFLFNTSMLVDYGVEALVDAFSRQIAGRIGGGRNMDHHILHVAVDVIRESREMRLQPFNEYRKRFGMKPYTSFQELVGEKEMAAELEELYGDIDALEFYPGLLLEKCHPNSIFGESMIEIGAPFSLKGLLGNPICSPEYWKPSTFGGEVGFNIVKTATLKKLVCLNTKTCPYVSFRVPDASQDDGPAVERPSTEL

[9] = target: Prostaglandin G/H synthase 2 (Homo sapiens, UniProt P35354); assay: Inhibition of COX2 in lympho-monocytes (unknown origin) preincubated for 30 mins followed by LPS challenged measured after 24 hrs by EIA; format: cell-based
Prostaglandin G/H synthase 2 (Homo sapiens, UniProt P35354), sequence (P35354 whole entry): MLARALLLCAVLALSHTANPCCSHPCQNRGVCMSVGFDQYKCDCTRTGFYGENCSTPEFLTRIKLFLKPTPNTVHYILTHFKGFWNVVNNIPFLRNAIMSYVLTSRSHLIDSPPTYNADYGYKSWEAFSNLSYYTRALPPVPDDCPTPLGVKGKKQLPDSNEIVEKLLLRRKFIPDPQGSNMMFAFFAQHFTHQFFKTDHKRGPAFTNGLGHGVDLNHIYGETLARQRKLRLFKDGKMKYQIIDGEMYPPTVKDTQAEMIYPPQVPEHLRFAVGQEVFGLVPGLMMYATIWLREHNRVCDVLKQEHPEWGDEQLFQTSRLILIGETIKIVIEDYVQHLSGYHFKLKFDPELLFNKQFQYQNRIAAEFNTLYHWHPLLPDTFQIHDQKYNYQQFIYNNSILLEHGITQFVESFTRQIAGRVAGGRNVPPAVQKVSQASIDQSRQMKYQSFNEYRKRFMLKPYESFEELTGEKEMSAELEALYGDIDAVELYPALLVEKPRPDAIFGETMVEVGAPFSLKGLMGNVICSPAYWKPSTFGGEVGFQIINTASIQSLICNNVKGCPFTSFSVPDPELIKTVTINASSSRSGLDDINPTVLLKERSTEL

[10] = target: Thromboxane A2 receptor (Homo sapiens) (UniProt P21731); assay: Antagonist activity at TP receptor in human washed platelet assessed as U46619 induced platelet aggregation after 6 mins; set-up: scale not given: the % may be the effect or the level left
Thromboxane A2 receptor (Homo sapiens), sequence (P21731 whole entry): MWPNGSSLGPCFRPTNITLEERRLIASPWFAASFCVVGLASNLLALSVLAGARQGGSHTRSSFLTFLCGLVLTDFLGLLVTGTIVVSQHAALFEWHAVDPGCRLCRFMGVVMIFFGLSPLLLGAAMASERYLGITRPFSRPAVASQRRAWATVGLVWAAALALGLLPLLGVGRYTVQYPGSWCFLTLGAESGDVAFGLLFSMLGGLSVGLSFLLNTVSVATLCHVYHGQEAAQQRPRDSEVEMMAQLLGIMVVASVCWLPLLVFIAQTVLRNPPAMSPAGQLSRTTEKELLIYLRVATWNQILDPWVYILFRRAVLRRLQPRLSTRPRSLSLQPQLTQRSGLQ

[11] = target: 5-hydroxytryptamine receptor 6 (Homo sapiens, UniProt P50406); assay: Displacement of [3H]-LSD from recombinant human 5HT6 receptor expressed in CHOK1 cells measured after 60 mins by microbeta scintillation counting method; format: cell-based
5-hydroxytryptamine receptor 6, sequence (P50406 whole entry): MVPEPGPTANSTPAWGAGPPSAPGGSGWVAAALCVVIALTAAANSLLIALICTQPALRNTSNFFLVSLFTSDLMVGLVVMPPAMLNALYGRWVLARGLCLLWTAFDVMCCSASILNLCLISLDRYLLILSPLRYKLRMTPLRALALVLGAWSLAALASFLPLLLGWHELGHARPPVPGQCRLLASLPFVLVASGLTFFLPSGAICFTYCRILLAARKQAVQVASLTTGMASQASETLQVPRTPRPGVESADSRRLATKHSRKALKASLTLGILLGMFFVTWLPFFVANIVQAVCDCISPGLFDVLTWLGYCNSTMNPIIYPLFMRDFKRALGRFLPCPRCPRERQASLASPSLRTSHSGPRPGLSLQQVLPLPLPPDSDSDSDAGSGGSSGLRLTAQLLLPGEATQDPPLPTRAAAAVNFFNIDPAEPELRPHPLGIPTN

[12] = target: T2, Cholinesterase; assay: Inhibition of recombinant human BChE using butyrylthiocholine iodide as substrate preincubated for 5 mins followed by substrate addition measured after 5 mins
[13] = target: Histamine H3 receptor (Homo sapiens, UniProt Q9Y5N1); assay: Inhibition of human histamine H3 receptor
[14] = target: Cholinesterase (Equus caballus, UniProt P81908); assay: Inhibition of equine BChE
[15] = target: Beta-secretase 1 (Homo sapiens, UniProt P56817); assay: Inhibition of BACE1 (unknown origin) using EVNLDAEF as substrate by fluorescence assay
[16] = Inhibition of nAChR (unknown origin) after 1 to 2 mins; set-up: species or system Homo sapiens
[17] = target: Muscarinic acetylcholine receptor M1 (Homo sapiens, UniProt P11229); assay: Inhibition of M1R (unknown origin)
[18] = target: T1, Acetylcholinesterase; assay: Inhibition of recombinant human AChE using acetylthiocholine iodide as substrate preincubated for 5 mins followed by substrate addition measured after 5 mins
[19] = target: Transient receptor potential cation channel subfamily V member 1 (Homo sapiens, UniProt Q8NER1); assay: Inhibition of TRPV1 (unknown origin)
[20] = target: Prostaglandin G/H synthase 1 (Ovis aries, UniProt P05979); assay: Inhibition of ovine COX1
[21] = target: Prostaglandin G/H synthase 2 (Ovis aries, UniProt P79208); assay: Inhibition of ovine COX2
[22] = target: 5-hydroxytryptamine receptor 1A (Mus musculus, UniProt Q64264); assay: Agonist activity at mouse 5-HT1A expressed in HEK293 cells after 2 to 5 mins; format: cell-based
5-hydroxytryptamine receptor 1A, sequence (Q64264 whole entry): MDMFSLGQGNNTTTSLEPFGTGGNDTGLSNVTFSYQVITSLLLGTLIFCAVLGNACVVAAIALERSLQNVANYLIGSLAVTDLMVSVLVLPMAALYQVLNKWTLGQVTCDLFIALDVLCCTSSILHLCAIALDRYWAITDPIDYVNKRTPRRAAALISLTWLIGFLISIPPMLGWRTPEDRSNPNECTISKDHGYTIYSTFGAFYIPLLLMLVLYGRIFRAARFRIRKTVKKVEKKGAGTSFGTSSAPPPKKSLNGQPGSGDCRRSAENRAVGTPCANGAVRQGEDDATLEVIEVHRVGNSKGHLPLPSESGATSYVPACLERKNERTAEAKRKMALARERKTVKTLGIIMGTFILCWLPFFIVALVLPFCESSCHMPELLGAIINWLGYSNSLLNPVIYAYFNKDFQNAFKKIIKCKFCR

[23] = target: Acetylcholinesterase (Rattus norvegicus, UniProt P37136); assay: Inhibition of rat AChE
Acetylcholinesterase (Rattus norvegicus, UniProt P37136), sequence (P37136 whole entry): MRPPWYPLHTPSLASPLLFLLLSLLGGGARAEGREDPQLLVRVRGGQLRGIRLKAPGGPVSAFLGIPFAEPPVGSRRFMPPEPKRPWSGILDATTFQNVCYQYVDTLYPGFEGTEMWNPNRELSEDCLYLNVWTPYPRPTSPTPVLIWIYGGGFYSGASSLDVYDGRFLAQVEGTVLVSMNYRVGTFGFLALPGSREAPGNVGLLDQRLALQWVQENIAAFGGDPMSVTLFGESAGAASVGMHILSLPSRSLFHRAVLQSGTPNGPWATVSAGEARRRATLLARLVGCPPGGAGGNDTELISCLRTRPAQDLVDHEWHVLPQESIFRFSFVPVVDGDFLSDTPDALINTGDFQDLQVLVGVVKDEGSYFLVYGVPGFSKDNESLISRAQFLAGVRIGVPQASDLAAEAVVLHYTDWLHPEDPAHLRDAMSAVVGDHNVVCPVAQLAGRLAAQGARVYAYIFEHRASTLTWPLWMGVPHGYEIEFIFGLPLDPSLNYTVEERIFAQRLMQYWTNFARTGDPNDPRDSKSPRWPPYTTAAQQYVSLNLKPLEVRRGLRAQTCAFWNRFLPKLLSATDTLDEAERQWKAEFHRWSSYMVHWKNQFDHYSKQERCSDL

[24] = target: Butyrylcholinesterase (Rattus norvegicus, UniProt Q9JKC1); assay: Inhibition of rat BChE
[25] = target: Sodium-dependent serotonin transporter (Homo sapiens, UniProt P31645); assay: Inhibition of 5HTT (unknown origin)

T1 sequence (P22303 whole entry): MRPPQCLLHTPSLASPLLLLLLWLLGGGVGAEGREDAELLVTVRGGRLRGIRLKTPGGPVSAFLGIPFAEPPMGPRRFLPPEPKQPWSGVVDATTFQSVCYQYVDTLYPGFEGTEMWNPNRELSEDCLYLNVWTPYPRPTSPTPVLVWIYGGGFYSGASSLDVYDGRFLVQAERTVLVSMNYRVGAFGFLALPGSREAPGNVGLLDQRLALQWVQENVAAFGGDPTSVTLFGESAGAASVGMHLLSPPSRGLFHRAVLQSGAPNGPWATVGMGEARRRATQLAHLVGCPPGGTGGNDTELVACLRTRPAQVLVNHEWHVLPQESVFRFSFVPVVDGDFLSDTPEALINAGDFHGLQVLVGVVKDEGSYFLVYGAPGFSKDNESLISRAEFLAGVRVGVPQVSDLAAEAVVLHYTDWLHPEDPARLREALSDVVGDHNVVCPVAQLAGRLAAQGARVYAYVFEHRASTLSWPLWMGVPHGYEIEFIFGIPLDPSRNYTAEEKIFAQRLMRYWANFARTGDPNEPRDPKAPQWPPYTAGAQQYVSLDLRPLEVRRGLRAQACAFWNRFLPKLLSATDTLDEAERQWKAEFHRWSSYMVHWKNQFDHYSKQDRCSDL
T2 sequence (P06276 whole entry, the tested form may be a part): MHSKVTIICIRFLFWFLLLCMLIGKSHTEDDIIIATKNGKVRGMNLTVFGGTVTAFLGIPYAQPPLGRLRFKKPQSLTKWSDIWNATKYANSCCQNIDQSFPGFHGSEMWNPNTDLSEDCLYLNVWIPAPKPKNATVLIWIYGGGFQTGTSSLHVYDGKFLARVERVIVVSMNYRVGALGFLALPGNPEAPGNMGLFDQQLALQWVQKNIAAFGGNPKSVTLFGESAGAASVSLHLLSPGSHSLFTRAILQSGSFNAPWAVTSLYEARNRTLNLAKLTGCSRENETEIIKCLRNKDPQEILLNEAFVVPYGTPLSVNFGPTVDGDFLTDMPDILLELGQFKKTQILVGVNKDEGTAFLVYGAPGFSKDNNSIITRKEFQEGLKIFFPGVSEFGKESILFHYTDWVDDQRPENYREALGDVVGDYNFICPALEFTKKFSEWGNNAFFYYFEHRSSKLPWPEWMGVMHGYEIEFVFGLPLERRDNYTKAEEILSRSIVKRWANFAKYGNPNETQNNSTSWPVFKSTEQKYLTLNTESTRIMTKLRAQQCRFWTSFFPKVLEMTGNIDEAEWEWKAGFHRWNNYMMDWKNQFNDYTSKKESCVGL

## O=C(c1ccc(OCCCc2cnc[nH]2)cc1)C1CC1 [CIPROXIFAN]
[1]
  IC50: 1900 nM

## COc1ccccc1CN1CCN(CCCCCOc2cccc3[nH]c4ccccc4c23)CC1
[2]
  IC50: 2.4 µM
[3]
  IC50: 600 nM
[4]
  inhibition: 34%
[5]
  Ki: 66.8 µM
[6]
  Ki: 35.3 µM

## C#CCN(C)Cc1cc2cc(OCCCC3CCN(Cc4ccccc4)CC3)ccc2n1C
[7]
  IC50: 0.3 nM

## Cc1ccc(Nc2c(F)cccc2Cl)c(CNc2nnn[nH]2)c1
[8]
  IC50: 13.2 µM
[9]
  IC50: 14 nM
[10]
  Activity: 5.6%

## CN(CCCN1CCN(c2cccc3c2ccn3Cc2ccccc2)CC1)Cc1ccccc1
[11]
  Ki: 240 nM
[12]
  IC50: 196 nM

## Cc1ccc(Nc2c(F)cccc2Cl)c(CNS(=O)(=O)C(F)(F)F)c1
[8]
  IC50: 16.1 µM
[9]
  IC50: 400 nM
[10]
  Activity: 5.9%

## O=c1c2cc(OCCCN3CCCCC3)ccc2nc2n1CCC2
[13]
  Ki: 2500 nM
[2]
  IC50: 5.4 µM
[14]
  IC50: 248 µM

## COc1cc2c(cc1OC)-c1cc(OCCN3CCCCC3)nc(=O)n1CC2
[2]
  IC50: 5 µM

## COc1ccc2nc3c(c(NCCCCCCCCNC(=S)NC45CC6CC(CC(C6)C4)C5)c2c1)CCCC3
[15]
  IC50: 18.4 µM
[2]
  IC50: 1.6 µM
[3]
  IC50: 300 nM
[4]
  inhibition: 77%
[16]
  IC50: 1100 nM
[17]
  IC50: 2200 nM

## Cc1c(OCc2ccccc2)cccc1N1CCN(CCCCCCNc2c3c(nc4c2CCCC4)CCCC3)CC1
[11]
  Ki: 18 nM
[18]
  IC50: 14 nM
[12]
  IC50: 22 nM

## CC[C@@H](/C=C/[C@@H](C)[C@H]1CC[C@H]2C3=CC[C@H]4C[C@@H](O)CC[C@]4(C)[C@H]3CC[C@]12C)C(C)C
[19]
  IC50: 1400 nM
[20]
  IC50: 16.2 µM
[21]
  IC50: 7.8 µM

## N#Cc1ccc2[nH]cc(CCCCN3CCN(c4c5c(nc6ccccc46)CCCC5)CC3)c2c1
[22]
  EC50: 107 nM
[23]
  IC50: 76 nM
[24]
  IC50: 3.3 µM
[25]
  IC50: 15.8 nM
